Experimental findings from patent publication US20110313672A1, “CELLULAR ANTIOXIDANT ACTIVITY (CAA) ASSAY” (CORNELL UNIVERSITY, priority 2007, published 2011) are described below.

Values joined by “and” are separate entries in the source; they are usually repeats but may differ in a detail not shown here. Equal values may be shown once. Read-outs that look alike come from different tables or passages of the source.

A short description of assay [1]: Oxygen radical absorbance capacity (ORAC) assay. To be noted: Example 3; flavonoids; mean ± SD, n ≧ 3. The method, then: The peroxyl radical scavenging efficacy of selected fruits was measured using the ORAC assay (Prior, R. L., et al (2003) J. Agric. Food Chem. 51:3273-3279). Briefly, 20 μL of blank, Trolox standard, or fruit extracts in 75 mM potassium phosphate buffer, pH 7.4 (working buffer), was added to triplicate wells in a black, clear-bottom, 96-well microplate. The triplicate samples were distributed throughout the microplate and were not placed side-by-side, to avoid any effects on readings due to location. In addition, no outside wells were used, as use of those wells results in greater variation. A volume of 200 μL of 0.96 μM fluorescein in working buffer was added to each well and incubated at 37° C. for 20 min, with intermittent shaking, before the addition of 20 μL of freshly prepared 119 mM ABAP in working buffer using a 12-channel pipetter. The microplate was immediately inserted into a Fluoroskan Ascent FL plate reader (ThermoLabsystems) at 37° C. The decay of fluorescence at 538 nm was measured with excitation at 485 nm every 4.5 min for 2.5 h. The areas under the fluorescence versus time curve for the samples minus the area under the curve for the blank were calculated and compared to a standard curve of the areas under the curve for 6.25, 12.5, 25, and 50 μM Trolox standards minus the area under the curve for blank. ORAC values were expressed as mean micromoles of Trolox equivalents (TE) per 100 g of fruit±SD for triplicate data from one experiment.
ORAC measurements were performed as described herein in Example 2.

Assay [2] relates to HepG2 cells. Put plainly: Cellular antioxidant activity (CAA) assay: inhibition of peroxyl radical-induced DCFH oxidation. It is filed as cell-based, human. To be noted: for CAA: Example 3, Table 7; for EC50: Homo sapiens; for CAA value: Example 1, pure compounds, EC50 converted to quercetin equivalents.
Where [3] appears, read: HepG2, Example 3, Table 7, PBS wash, flavonoids, mean ± SD, n=3, read-out: EC50.
The mark [4] stands for this setting: HepG2, Example 3, Table 7, no PBS wash, flavonoids, mean ± SD, n=3, read-out: EC50.

Turning to `Oc1cc(O)c2c(c1)O[C@H](c1cc(O)c(O)c(O)c1)[C@H](O)C2` [EGC, (−)-epigallocatechin], the ORAC in assay [1] is 3.11±0.73 μmol of TE/μmol and 3.11 ± 0.73 cde μmol of TE/μmol. The CAA in assay [2] (no PBS wash) is given as 12.1 ± 2.2 μmol of QE/100 μmol. The figures for the concentration for a half-maximal effect (EC50) in assay [2] (setting [3]) and in assay [2] (setting [4]) were over 100 µM and 74.2 ± 12.9 µM, respectively. The “cellular antioxidant activity, result in words” value in assay [2] (PBS wash protocol) is “low activity at the concentrations tested”.
As to `O=c1c(O)c(-c2ccc(O)cc2O)oc2cc(O)cc(O)c12` [morin], the ORAC in assay [1] was 6.12±1.95 μmol of TE/μmol and 6.12 ± 1.95 efg μmol of TE/μmol. The CAA is 18.6 ± 18 μmol of QE/100 μmol in assay [2] (PBS wash) and 32.1 ± 2.1 μmol of QE/100 μmol in assay [2] (no PBS wash). The EC50 in assay [2] (setting [3]) was found to be 43.9 ± 4.3 µM; in assay [2] (setting [4]), 27.6 ± 1.8 µM; in assay [2] (HepG2, Example 3, text b252, PBS wash, read-out: EC50) it was 43.9 ± 0.43 µM; in assay [2] (HepG2, Example 3, text b252, no PBS wash, read-out: EC50) it was 27.6 ± 1.8 µM.
As to `O=c1c(O)c(-c2ccc(O)cc2)oc2cc(O)cc(O)c12` [Kaempferol, kaempferol], the ORAC in assay [1] is listed as 7.19 ± 1.29 def μmol of TE/μmol. Besides, the CAA value in assay [2] (PBS wash) is 81.1 ± 2.7 µmol QE/100 µmol; in assay [2] (no PBS wash), 75.3±4.7 μmol QE/100 μmol. Moreover, the CAA is recorded as 85.1 ± 2.4 μmol of QE/100 μmol in assay [2] (PBS wash) and 74.6 ± 4.8 μmol of QE/100 μmol in assay [2] (no PBS wash). Further, the EC50 in assay [2] (HepG2, Example 1, Table 1, PBS wash, pure phytochemical compounds, mean ± SD, n=3, read-out: EC50 for inhibition of peroxyl radical-induced DCFH oxidation) came out at 6.31 ± 0.21 µM; in assay [2] (HepG2, Example 1, Table 1, no PBS wash, pure phytochemical compounds, mean ± SD, n=3, read-out: EC50 for inhibition of peroxyl radical-induced DCFH oxidation) it was 7.85 ± 0.51 µM; in assay [2] (setting [3]), 9.57 ± 0.27 µM; in assay [2] (setting [4]), 11.9 ± 0.8 µM.
